Test results as given in ChEMBL document CHEMBL1201862, “PubChem BioAssay data set” (2004).
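Exposure lasted 48 hours, with cells grown in 96-well plates and compounds tested at five concentrations. GI50 marks 50% less growth.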 Active and inactive are the calls of the source. Cut-off read from the data, not from the text of the source: active = GI50 up to about 1.1 µM and inactive = higher.

Assays:
Experiment in all cases: DTP human tumour cell line panel, 48 h
A549 = system: A549
COLO 205 = system: COLO 205
HCC 2998 = system: HCC 2998
HCT-116 = system: HCT-116
IGROV-1 = system: IGROV-1
KM12 = system: KM12
M14 = system: M14
NCI-H23 = system: NCI-H23
NCI-H460 = system: NCI-H460
NCI/ADR-RES = system: NCI/ADR-RES
OVCAR-3 = system: OVCAR-3
OVCAR-4 = system: OVCAR-4
OVCAR-5 = system: OVCAR-5
SF-268 = system: SF-268
SF-539 = system: SF-539
SK-MEL-2 = system: SK-MEL-2
SK-OV-3 = system: SK-OV-3
T47D = system: T47D
MOLT-4 = system: MOLT-4
RPMI-8226 = system: RPMI-8226

Compound	GI50 (A549)	GI50 (COLO 205)	GI50 (HCC 2998)	GI50 (HCT-116)	GI50 (IGROV-1)	GI50 (KM12)	GI50 (M14)	GI50 (NCI-H23)	GI50 (NCI-H460)	GI50 (NCI/ADR-RES)	GI50 (OVCAR-3)	GI50 (OVCAR-4)	GI50 (OVCAR-5)	GI50 (SF-268)	GI50 (SF-539)	GI50 (SK-MEL-2)	GI50 (SK-OV-3)	GI50 (T47D)	GI50 (MOLT-4)	GI50 (RPMI-8226)
Cc1ccc2c(c1)[nH]c(=S)n2C=C(C(N)=O)C(N)=O	> 100 µM (inactive)	> 100 µM (inactive)	> 100 µM (inactive)	> 100 µM (inactive)	> 100 µM (inactive)	> 100 µM (inactive)	> 100 µM (inactive)	> 100 µM (inactive)	> 100 µM (inactive)	> 100 µM (inactive)	> 100 µM (inactive)	> 100 µM (inactive)	> 100 µM (inactive)	> 100 µM (inactive)	> 100 µM (inactive)	> 100 µM (inactive)	> 100 µM (inactive)	> 100 µM (inactive)		
CC(C)(C)OC(=O)NCCC1CNc2ccccc21 (stereo not drawn)	> 100 µM (inactive)	> 100 µM (inactive)	> 100 µM (inactive)	> 100 µM (inactive)	> 100 µM (inactive)	> 100 µM (inactive)	> 100 µM (inactive)	> 100 µM (inactive)	> 100 µM (inactive)	> 100 µM (inactive)	> 100 µM (inactive)	> 100 µM (inactive)	> 100 µM (inactive)	> 100 µM (inactive)		> 100 µM (inactive)	> 100 µM (inactive)	> 100 µM (inactive)	> 100 µM (inactive)	> 100 µM (inactive)
O=C(OCC(Cl)(Cl)Cl)N1CC[C@H](C2CCCCC2)C1	14.9 µM (inactive)	18.8 µM (inactive)	18.5 µM (inactive)	14.6 µM (inactive)	16.4 µM (inactive)	17.3 µM (inactive)	20.7 µM (inactive)	15.3 µM (inactive)	18.6 µM (inactive)	15 µM (inactive)	16.6 µM (inactive)	16.6 µM (inactive)	18.9 µM (inactive)	21 µM (inactive)		15.8 µM (inactive)	15.6 µM (inactive)	15.3 µM (inactive)	28.1 µM (inactive)	
COC(=O)C1CCC(=O)N1C(c1cc(OC)c(OC)c(OC)c1)c1cccc2ccccc12 (stereo not drawn)	> 100 µM (inactive)			> 100 µM (inactive)	> 100 µM (inactive)	> 100 µM (inactive)	> 100 µM (inactive)		> 100 µM (inactive)	39 µM (inactive)	> 100 µM (inactive)		> 100 µM (inactive)	15.3 µM (inactive)	> 100 µM (inactive)	> 100 µM (inactive)	25.4 µM (inactive)	> 100 µM (inactive)	13.8 µM (inactive)	76.6 µM (inactive)
[C-]#[N+]C1(C(=O)OCC)CC1	> 100 µM (inactive)		> 100 µM (inactive)	> 100 µM (inactive)	> 100 µM (inactive)		> 100 µM (inactive)	> 100 µM (inactive)	> 100 µM (inactive)	> 100 µM (inactive)	> 100 µM (inactive)	> 100 µM (inactive)	> 100 µM (inactive)	> 100 µM (inactive)	> 100 µM (inactive)			> 100 µM (inactive)	> 100 µM (inactive)	> 100 µM (inactive)
COC(=O)C(NC(=O)C12CCC(C)(C(=O)O1)C2(C)C)c1cc(C(C)(C)C)c(O)c(C(C)(C)C)c1 (stereo not drawn)	> 100 µM (inactive)	49.4 µM (inactive)		64.3 µM (inactive)	> 100 µM (inactive)	23.5 µM (inactive)	> 100 µM (inactive)	> 100 µM (inactive)		> 100 µM (inactive)	> 100 µM (inactive)	> 100 µM (inactive)	> 100 µM (inactive)	> 100 µM (inactive)	> 100 µM (inactive)	> 100 µM (inactive)	> 100 µM (inactive)	81.7 µM (inactive)	42.2 µM (inactive)	14.7 µM (inactive)
COc1ccc(N2CCN(Cc3c(C(C)=O)[n+]([O-])c4ccccc4[n+]3[O-])CC2)cc1	40.3 µM (inactive)	60.8 µM (inactive)	> 100 µM (inactive)	49.5 µM (inactive)	32.4 µM (inactive)	48.1 µM (inactive)	45.5 µM (inactive)	10.6 µM (inactive)	87.5 µM (inactive)	24.5 µM (inactive)	> 100 µM (inactive)	38.3 µM (inactive)	68.2 µM (inactive)	21.1 µM (inactive)		54.2 µM (inactive)	32.3 µM (inactive)	57.3 µM (inactive)		> 100 µM (inactive)
O=P1(O)c2ccccc2CSCc2ccccc21	> 100 µM (inactive)	> 100 µM (inactive)	> 100 µM (inactive)	> 100 µM (inactive)	> 100 µM (inactive)	> 100 µM (inactive)	> 100 µM (inactive)	> 100 µM (inactive)	> 100 µM (inactive)	> 100 µM (inactive)	> 100 µM (inactive)	> 100 µM (inactive)	> 100 µM (inactive)	> 100 µM (inactive)	> 100 µM (inactive)	> 100 µM (inactive)	> 100 µM (inactive)	> 100 µM (inactive)	> 100 µM (inactive)	
COc1cc2cc(C(=O)N3CC(CCl)c4c3cc(NC(=O)C(C)Nc3c([N+](=O)[O-])cc(C(=O)NCCN(C)C)cc3[N+](=O)[O-])c3ccccc43)[nH]c2c(OC)c1OC (stereo not drawn)	0.0682 µM (active)	0.0515 µM (active)	0.0315 µM (active)	0.0743 µM (active)	0.12 µM (active)	0.119 µM (active)	0.187 µM (active)	< 0.01 µM (active)	0.0157 µM (active)	0.441 µM (active)	0.201 µM (active)	0.191 µM (active)	0.0555 µM (active)	0.0202 µM (active)	0.0331 µM (active)	0.0675 µM (active)	0.21 µM (active)	0.046 µM (active)	0.0244 µM (active)	
O=C1CC(NC(=O)C(F)(F)F)c2c(Br)sc(N3CCNCC3)c21 (stereo not drawn)	> 100 µM (inactive)	> 100 µM (inactive)	> 100 µM (inactive)	> 100 µM (inactive)	> 100 µM (inactive)	> 100 µM (inactive)	> 100 µM (inactive)	> 100 µM (inactive)	> 100 µM (inactive)	> 100 µM (inactive)	> 100 µM (inactive)	> 100 µM (inactive)	> 100 µM (inactive)	> 100 µM (inactive)	> 100 µM (inactive)	13.2 µM (inactive)	> 100 µM (inactive)	> 100 µM (inactive)	> 100 µM (inactive)	
CNC(=O)OCCN1c2ccccc2Sc2ccccc21	87.1 µM (inactive)	> 100 µM (inactive)	> 100 µM (inactive)	74 µM (inactive)	42.1 µM (inactive)	> 100 µM (inactive)	> 100 µM (inactive)	> 100 µM (inactive)	86.7 µM (inactive)	> 100 µM (inactive)	63.2 µM (inactive)	> 100 µM (inactive)	> 100 µM (inactive)	> 100 µM (inactive)	> 100 µM (inactive)		> 100 µM (inactive)	> 100 µM (inactive)	> 100 µM (inactive)	
N#Cc1cccc2c1Sc1ccccc1N2	24.5 µM (inactive)	19.8 µM (inactive)	27 µM (inactive)	31.3 µM (inactive)	45.1 µM (inactive)	32.7 µM (inactive)	25.8 µM (inactive)	21.2 µM (inactive)	32.5 µM (inactive)	31.3 µM (inactive)	57 µM (inactive)		26.7 µM (inactive)	30.8 µM (inactive)	20.4 µM (inactive)		38.9 µM (inactive)	19.2 µM (inactive)	11.5 µM (inactive)	27.7 µM (inactive)
COc1cc2ccnc3c2c(c1O)N(C)C=C3	20.2 µM (inactive)	20.7 µM (inactive)	23 µM (inactive)	4 µM (inactive)	6.11 µM (inactive)	19.4 µM (inactive)	17 µM (inactive)	17.1 µM (inactive)	24.9 µM (inactive)	18.7 µM (inactive)	4.62 µM (inactive)	16 µM (inactive)	16.7 µM (inactive)	17.7 µM (inactive)		17.7 µM (inactive)	13.4 µM (inactive)	7.38 µM (inactive)	4.26 µM (inactive)	4.18 µM (inactive)
O=C1C(O)=C(C(C2=C(O)C(=O)c3ccccc3C2=O)c2ccc(Cl)cc2)C(=O)c2ccccc21	19.3 µM (inactive)	18.6 µM (inactive)		6.34 µM (inactive)	8.2 µM (inactive)	8.97 µM (inactive)	9.59 µM (inactive)	4.85 µM (inactive)	14 µM (inactive)	11.6 µM (inactive)	4.93 µM (inactive)	6.24 µM (inactive)	7.93 µM (inactive)	10.4 µM (inactive)	18 µM (inactive)	8.36 µM (inactive)	17.7 µM (inactive)	21 µM (inactive)	4.56 µM (inactive)	9.86 µM (inactive)
COc1cc(O)c(C(=O)/C=C/c2ccc(O)cc2)cc1Oc1ccc(/C=C/C(=O)c2ccc(O)cc2O)cc1 [RHUSCHALCONE III]	14.8 µM (inactive)	8.43 µM (inactive)		7.85 µM (inactive)	7.66 µM (inactive)	6.75 µM (inactive)	9.62 µM (inactive)	11.1 µM (inactive)	11.6 µM (inactive)	10.1 µM (inactive)	8.07 µM (inactive)	8.07 µM (inactive)	13.7 µM (inactive)	8.81 µM (inactive)	8.89 µM (inactive)	10.1 µM (inactive)	8.36 µM (inactive)	15.3 µM (inactive)	11.3 µM (inactive)	6.79 µM (inactive)
